Patent US9371331B2, “Modulators of methyl modifying enzymes, compositions and uses thereof” (Constellation Pharmaceuticals, Inc., priority 2012, dated 2016)
pEC50, pIC50: −log10 of the molar value. Like-named read-outs stand apart in the source and are kept apart here.

Legend:
[1] = system: H3K27me3 mark in HeLa cells; assay: H3K27me3 MSD Hela Assay; format: cell-based; conditions: read-out: H3K27me3_MSD_HeLa_ (EC50)
In short: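 HeLa cells treated with compound at various concentrations for 96 h at 37 °C, then lysed with high-salt extraction. H3K27me3 measured by MSD electrochemiluminescence immunoassay on total-H3 capture plates. Dose-dependent inhibition normalised to DMSO wells and fitted to curves.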

[2] = system: H3K27me3 mark in HeLa cells; assay: H3K27me3 Alpha Hela Assay (AlphaLISA); format: cell-based; conditions: 72 hrs, read-out: H3K27me3_Alpha_HeLa_ (EC50)
Description: H3K27me3 Alpha Hela Assay (AlphaLISA).
Ten different doses of each test compound (in a series of 3-fold dilutions) were plated in duplicate 384-well tissue culture treated plates (Catalog #781080; Greiner Bio One; Monroe, N.C.). Hela cells grown in culture were trypsinized and counted using a Countess® cell counter (Catalog #C10281; Life Technologies, Grand Island, N.Y.). Cell were diluted to 67,000 cells per mL in 10% DMEM (Catalog #10569-010 Life Technologies. Grand Island, N.Y.) and 15 μL (1,000 cells) were plated into each well using the Biotek MicroFlo™ Select Dispenser (BioTek Instruments. Inc. Vermont, USA),) of the 384-well plate. Plates were incubated at 37° C./5% CO2 for 72 hrs. One of the duplicate plates was processed for HeLa assay and the other for viability.
To the plate processed for AlphaLISA was added 5 μL per well Cell-Histone Lysis buffer (1×) (Catalog #AL009F1 Perkin Elmer; Waltham, Mass.) and the plate was incubated at RT for 30 minutes on a plate shaker with low speed (Model#4625-Q Thermo Scientific; Waltham, Mass.). Then, 10 µL per well Histone Extraction buffer (catalog #AL009F2: Perkin Elmer; Waltham, Mass.) was added and the plate further incubated at RT for 20 min on plate shaker with low speed. To each well was then added 10 μL per well of a 5× mix of anti-K27me3 acceptor beads plus Biotinylated anti-Histone H3 (C-ter) Antibody (diluted to 3 nM final) (Catalog #AL118 Perkin Elmer; Waltham, Mass.). Dilution of the acceptor beads and then anti-Histone H3 was with 1× Histone Detection buffer (Catalog #AL009F3 Perkin Elmer; Waltham, Mass.) which was produced diluted from the 10× stock provided. The plate was sealed with an aluminum plate sealer and incubated at 23° C. for 60 min. We then added 10 μL 5× solution of Streptavidin Donor beads (Catalog #6760002 Perkin Elmer; Waltham, Mass.) (20 μg/mL final in 1× Histone Detection Buffer), sealed the plate with Aluminum plate sealer and incubated at 23° C. for 30 min. The plates were then read using an EnVision-Alpha Reader (model #2104 Perkin Elmer: Waltham, Mass.).
Data from both assays was analyzed using Assay Assistant (Constellation Pharmaceuticals In-house product) and Activity Base (IDBS Ltd. Surrey, UK) template. Data files were imported to Assay Assistant and assay conditions were specified. A unique Analysis ID was created and the data files exported to Activity Base. An analysis template was created on Activity Base to measure dose-dependent inhibition of H3K27me3 mark and cell viability respectively. Readout of DMSO wells were used to normalize the data. Resulting curves were fitted using Activity base software Model 205 (IDBS Ltd, Surrey, UK). The data was checked for quality, validated and integrated in excel format using SARview (IDBS Ltd, Surrey, UK).

Y641N EZH2 = Y641N EZH2 (Homo sapiens, UniProt Q15910, Y641N); assay: Y641N EZH2 assay: as EZH2 assay, with reconstituted H3K27Me2 oligonucleosomes as substrate; format: biochemical
EZH2 (rPRC2) = EZH2 (rPRC2) (Homo sapiens, UniProt Q15910); assay: EZH2 assay: rPRC2, biotinylated oligonucleosomes, 3H SAM methyl transfer (FlashPlate scintillation); format: biochemical; conditions: biotinylated oligonucleosome substrate
[3] = Y641N EZH2 IC50, Y641N mutant EZH2, H3K27Me2 oligonucleosome substrate
[4] = EZH2 IC50, wild-type EZH2 (rPRC2)
[5] = Y641N mutant EZH2, H3K27Me2 oligonucleosome substrate, read-out: Y641N EZH2 IC50
[6] = wild-type EZH2 (rPRC2), read-out: EZH2 IC50

Y641N EZH2, sequence (Q15910 whole entry Y641N): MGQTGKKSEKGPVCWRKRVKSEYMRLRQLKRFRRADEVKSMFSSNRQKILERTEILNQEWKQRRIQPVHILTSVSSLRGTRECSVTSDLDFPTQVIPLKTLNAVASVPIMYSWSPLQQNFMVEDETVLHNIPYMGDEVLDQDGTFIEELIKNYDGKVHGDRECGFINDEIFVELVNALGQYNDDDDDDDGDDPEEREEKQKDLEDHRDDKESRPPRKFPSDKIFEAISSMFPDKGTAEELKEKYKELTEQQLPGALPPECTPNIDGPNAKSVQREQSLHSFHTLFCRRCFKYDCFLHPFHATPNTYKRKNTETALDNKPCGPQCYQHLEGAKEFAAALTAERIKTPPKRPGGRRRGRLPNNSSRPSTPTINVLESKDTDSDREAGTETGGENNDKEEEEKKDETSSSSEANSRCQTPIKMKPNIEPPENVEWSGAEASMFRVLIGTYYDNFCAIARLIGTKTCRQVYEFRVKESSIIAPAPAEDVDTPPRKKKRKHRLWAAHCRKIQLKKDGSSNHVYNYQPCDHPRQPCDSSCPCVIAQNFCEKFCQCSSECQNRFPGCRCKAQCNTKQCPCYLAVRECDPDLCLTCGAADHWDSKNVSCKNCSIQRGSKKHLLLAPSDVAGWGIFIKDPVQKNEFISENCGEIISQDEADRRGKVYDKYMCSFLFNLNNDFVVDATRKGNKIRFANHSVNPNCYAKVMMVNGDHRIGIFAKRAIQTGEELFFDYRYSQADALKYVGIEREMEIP
Y641N EZH2, sequence (O75530 whole entry partner): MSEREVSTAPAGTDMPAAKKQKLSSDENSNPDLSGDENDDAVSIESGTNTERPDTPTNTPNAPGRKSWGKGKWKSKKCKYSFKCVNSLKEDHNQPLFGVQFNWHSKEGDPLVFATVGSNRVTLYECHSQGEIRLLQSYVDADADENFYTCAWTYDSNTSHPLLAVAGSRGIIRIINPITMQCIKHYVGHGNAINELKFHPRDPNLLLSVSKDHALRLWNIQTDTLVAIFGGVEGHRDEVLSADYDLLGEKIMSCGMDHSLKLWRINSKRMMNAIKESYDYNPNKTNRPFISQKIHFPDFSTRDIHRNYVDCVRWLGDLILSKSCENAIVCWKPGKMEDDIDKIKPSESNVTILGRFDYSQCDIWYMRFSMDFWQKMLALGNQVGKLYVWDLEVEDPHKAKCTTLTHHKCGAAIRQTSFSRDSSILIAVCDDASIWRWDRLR
Y641N EZH2, sequence (Q15022 whole entry partner): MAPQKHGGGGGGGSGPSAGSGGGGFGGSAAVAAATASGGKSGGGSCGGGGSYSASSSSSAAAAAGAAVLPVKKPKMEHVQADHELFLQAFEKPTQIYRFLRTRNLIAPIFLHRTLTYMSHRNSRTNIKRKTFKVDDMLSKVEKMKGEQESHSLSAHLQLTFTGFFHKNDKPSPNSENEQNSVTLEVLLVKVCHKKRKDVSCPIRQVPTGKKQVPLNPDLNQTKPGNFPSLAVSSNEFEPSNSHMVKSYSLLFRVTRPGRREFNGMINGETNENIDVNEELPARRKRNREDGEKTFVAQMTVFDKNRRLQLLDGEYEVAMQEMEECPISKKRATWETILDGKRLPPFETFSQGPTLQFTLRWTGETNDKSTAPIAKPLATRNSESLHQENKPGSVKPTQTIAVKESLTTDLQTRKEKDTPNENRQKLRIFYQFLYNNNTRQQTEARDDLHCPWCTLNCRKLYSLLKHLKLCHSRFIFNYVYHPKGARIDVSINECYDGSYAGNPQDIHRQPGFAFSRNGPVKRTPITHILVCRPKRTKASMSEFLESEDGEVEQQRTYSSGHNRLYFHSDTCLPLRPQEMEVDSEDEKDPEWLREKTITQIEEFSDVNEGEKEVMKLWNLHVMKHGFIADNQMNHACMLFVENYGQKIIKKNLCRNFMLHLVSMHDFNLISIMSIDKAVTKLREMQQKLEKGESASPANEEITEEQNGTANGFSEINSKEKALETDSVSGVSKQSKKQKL
EZH2 (rPRC2), sequence (Q15910 whole entry): as the sequence (Q15910 whole entry Y641N) above, with N641Y counted along it
EZH2 (rPRC2), sequence (O75530 whole entry partner): as the sequence (O75530 whole entry partner) above
EZH2 (rPRC2), sequence (Q15022 whole entry partner): as the sequence (Q15022 whole entry partner) above

Row | Compound | pEC50 ([1]; Homo sapiens, HeLa, 96 h) | pEC50 ([2]; Homo sapiens) | pIC50 (Y641N EZH2; [3]) | pIC50 (EZH2 (rPRC2); [4]) | pEC50 ([1]; HeLa cells, MSD, 96 hours) | pEC50 [2] | pIC50 (Y641N EZH2; [5]) | pIC50 (EZH2 (rPRC2); [6])
1 | COc1cc(C)[nH]c(=O)c1CNC(=O)c1c(C)n(C(C)C(C)OC)c2ncccc12 (single isomer, unassigned) [Compound 261, N-((4-methoxy-6-methyl-2-oxo-1,2-dihydropyridin-3-yl)methyl)-1-((2R or 2S, 3R or 3S)-3-methoxybutan-2-yl)-2-methyl-1H-pyrrolo[2,3-b]pyridine-3-carboxamide] | > 6.40 | > 6.40 | > 7.00 | > 7.00 |  |  |  | 
2 | Cc1cc(C)c(CNC(=O)c2c(C)n(C(C)c3cccc(C#N)c3)c3ccccc23)c(=O)[nH]1 (centres unmarked) [Compound 187, 1-(1-(3-cyanophenyl)ethyl)-N-((4,6-dimethyl-2-oxo-1,2-dihydropyridin-3-yl)methyl)-2-methyl-1H-indole-3-carboxamide] | 5.70 to 6.40 | 5.70 to 6.40 | 6.00 to 7.00 | > 7.00 |  |  |  | 
3 | (±)-1-(1-(4,4-difluorocyclohexyl)ethyl)-N-((4-methoxy-6-methyl-2-oxo-1,2-dihydropyridin-3-yl)methyl)-2-methyl-1H-indole-3-carboxamide [Compound 304] |  |  |  |  | > 6.40 | > 6.40 | > 7.00 | > 7.00
4 | COc1cc(C)[nH]c(=O)c1CNC(=O)c1c(C)n(C(C)C2CCN(C(=O)OC(C)C)CC2)c2ccccc12 (single isomer, unassigned) [Compound 346, (R or S)-isopropyl 4-(1-(3-((4-methoxy-6-methyl-2-oxo-1,2-dihydropyridin-3-yl)methylcarbamoyl)-2-methyl-1H-indol-1-yl)ethyl)piperidine-1-carboxylate] |  | > 6.40 | > 7.00 | > 7.00 |  |  |  | 
5 | COc1cc(C)[nH]c(=O)c1CNC(=O)c1c(C)n(C(C)C2CCNCC2)c2ncncc12 (racemic) [Compound 333, (±)-N-((4-methoxy-6-methyl-2-oxo-1,2-dihydropyridin-3-yl)methyl)-6-methyl-7-(1-(piperidin-4-yl)ethyl)-7H-pyrrolo[2,3-d]pyrimidine-5-carboxamide] |  | 5.70 to 6.40 | 6.00 to 7.00 | > 7.00 |  |  |  | 
6 | COc1cc(C)[nH]c(=O)c1CNC(=O)c1c(C)n(-c2cccc3ncccc23)c2ccccc12 [Compound 330, N-((4-methoxy-6-methyl-2-oxo-1,2-dihydropyridin-3-yl)methyl)-2-methyl-1-(quinolin-5-yl)-1H-indole-3-carboxamide] |  | 5.70 to 6.40 |  |  |  |  | > 7.00 | > 7.00
7 | Cc1cc(C)c(CNC(=O)c2c(C)n(C(C)C3CCN(CC(C)(C)O)CC3)c3ccccc23)c(=O)[nH]1 (single isomer, unassigned) [Compound 369, (R or S)-N-((4,6-dimethyl-2-oxo-1,2-dihydropyridin-3-yl)methyl)-1-(1-(1-(2-hydroxy-2-methylpropyl)piperidin-4-yl)ethyl)-2-methyl-1H-indole-3-carboxamide] |  | > 6.40 | > 7.00 | > 7.00 |  |  |  | 
8 | Cc1cc(OC(F)F)c(CNC(=O)c2c(C)n(C(C)C3CCOCC3)c3ccccc23)c(=O)[nH]1 (single isomer, unassigned) [Compound 335, (R or S)-N-((4-(difluoromethoxy)-6-methyl-2-oxo-1,2-dihydropyridin-3-yl)methyl)-2-methyl-1-(1-(tetrahydro-2 H-pyran-4-yl)ethyl)-1 H-indole-3-carboxamide] |  | > 6.40 | > 7.00 | > 7.00 |  |  |  | 
9 | COc1cc(C)[nH]c(=O)c1CNC(=O)c1c(C)n(C(C)C2CCN(CCF)CC2)c2ccccc12 (single isomer, unassigned) [Compound 356, (R or S)-1-(1-(1-(2-fluoroethyl)piperidin-4-yl)ethyl)-N-((4-methoxy-6-methyl-2-oxo-1,2-dihydropyridin-3-yl)methyl-2-methyl-1H-indole-3-carboxamide] |  | > 6.40 | > 7.00 | > 7.00 |  |  |  | 
10 | COc1cc(C)[nH]c(=O)c1CNC(=O)c1c(C)n(C(C)C2CCN(c3ccccn3)CC2)c2ccccc12 (single isomer, unassigned) [Compound 373] |  | > 6.40 | > 7.00 | > 7.00 |  |  |  | 
11 | CCS(=O)(=O)C1(C(C)n2c(C)c(C(=O)NCc3c(OC)cc(C)[nH]c3=O)c3ccccc32)CCNCC1 (single isomer, unassigned) [Compound 345, (R or S)-1-(1-(4-(ethylsulfonyl)piperidin-4-yl)ethyl)-N-((4-methoxy-6-methyl-2-oxo-1,2-dihydropyridin-3-yl)methyl)-2-methyl-1 H-indole-3-carboxamide] |  | > 6.40 | > 7.00 | > 7.00 |  |  |  | 
12 | COc1cc(C)[nH]c(=O)c1CNC(=O)c1c(C)n(C(C)C2CCOCC2)c2cc(-c3ccccc3)ccc12 (single isomer, unassigned) [Compound 374, (R or S)—N-((4-methoxy-6-methyl-2-oxo-1,2-dihydropyridin-3-yl)methyl)-2-methyl-6-phenyl-1-(1-(tetrahydro-2H-pyran-4-yl)ethyl)-1H-indole-3-carboxamide] |  | > 6.40 | > 7.00 | > 7.00 |  |  |  | 
13 | COc1cc(C)[nH]c(=O)c1CNC(=O)c1c(C)n(C(C)C2CCOCC2)c2ccccc12 (single isomer, unassigned) [Compound 298, (R or S)-N-((4-methoxy-6-methyl-2-oxo-1,2-dihydropyridin-3-yl)methyl)-2-methy1-1-(1-(tetrahydro-2H-pyran-4-yl)ethyl)-1H-indole-3-carboxamide] | > 6.40 | > 6.40 |  |  |  |  |  | 
14 | COc1cc(C)[nH]c(=O)c1CNC(=O)c1c(C)n(C(C)C2CCN(C(C)C)CC2)c2ccccc12 (single isomer, unassigned) [Compound 358, (R or S)-1-(1-(1-isopropylpiperidin-4-yl)ethyl)-N-((4-methoxy-6-methyl-2-oxo-1,2-dihydropyridin-3-yl)methyl)-2-methyl-1H-indole-3-carboxamide] |  | 5.70 to 6.40 | > 7.00 | > 7.00 |  |  |  | 
15 | COc1cc(C)[nH]c(=O)c1CNC(=O)c1c(C)n(C(C)C2CCOCC2)c2cc(Cl)ccc12 (single isomer, unassigned) [Compound 314, (R or S)-6-chloro-N-((4-methoxy-6-methyl-2-oxo-1,2-dihydropridin-3-1)methyl)-2-methyl-1-(1-(tetrahydro-2H-pyran-4-yl)ethyl)-1H-indole-3-carboxamide] |  | > 6.40 | > 7.00 | > 7.00 |  |  |  | 
16 | COc1cc(C)[nH]c(=O)c1CNC(=O)c1c(C)n(C(C)C2CCN(c3ncccn3)CC2)c2ccccc12 (single isomer, unassigned) [Compound 361, (R or S)—N-((4-methoxy-6-methyl-2-oxo-1,2-dihydropyridin-3-yl)methyl)-2-methyl-1-(1-1-(pyrimidin-2-yl)piperidin-4-yl)ethyl)-1H-indole-3-carboxamide] |  | > 6.40 | > 7.00 | > 7.00 |  |  |  | 
17 | COc1cc(C)[nH]c(=O)c1CNC(=O)c1c(C)n(C(C)C2CCN(CC(F)F)CC2)c2ccccc12 (single isomer, unassigned) [Compound 362, (R or S)-1-(1-(1-(2,2-difluoroethyl)piperidin-4-yl)ethyl)-N-((4-methoxy-6-methyl-2-oxo-1,2-dihydropyridin-3-yl)methyl)-2-methyl-1H-indole-3-carboxamide] |  | > 6.40 | > 7.00 | > 7.00 |  |  |  | 
